Measured values published in ChEMBL document CHEMBL3259739, “Synthesis and structure-activity relationship of trisubstituted thiazoles as Cdc7 kinase inhibitors” (Eur J Med Chem, 2014).
pIC50: −log10 of the molar value.

Legend:
[1] = target: Cyclin-dependent kinase 2/cyclin E1 (Homo sapiens, UniProt P24941); test: Inhibition of CDK2/Cyclin-E (unknown origin) using maltose binding protein as substrate by HTRF assay; format: protein-complex assay
[2] = target: T1, Cyclin-G-associated kinase (Homo sapiens) (UniProt O14976); test: Inhibition of GAK (unknown origin) at 1 uM relative to control; values are per cent of control
T1 sequence (whole entry): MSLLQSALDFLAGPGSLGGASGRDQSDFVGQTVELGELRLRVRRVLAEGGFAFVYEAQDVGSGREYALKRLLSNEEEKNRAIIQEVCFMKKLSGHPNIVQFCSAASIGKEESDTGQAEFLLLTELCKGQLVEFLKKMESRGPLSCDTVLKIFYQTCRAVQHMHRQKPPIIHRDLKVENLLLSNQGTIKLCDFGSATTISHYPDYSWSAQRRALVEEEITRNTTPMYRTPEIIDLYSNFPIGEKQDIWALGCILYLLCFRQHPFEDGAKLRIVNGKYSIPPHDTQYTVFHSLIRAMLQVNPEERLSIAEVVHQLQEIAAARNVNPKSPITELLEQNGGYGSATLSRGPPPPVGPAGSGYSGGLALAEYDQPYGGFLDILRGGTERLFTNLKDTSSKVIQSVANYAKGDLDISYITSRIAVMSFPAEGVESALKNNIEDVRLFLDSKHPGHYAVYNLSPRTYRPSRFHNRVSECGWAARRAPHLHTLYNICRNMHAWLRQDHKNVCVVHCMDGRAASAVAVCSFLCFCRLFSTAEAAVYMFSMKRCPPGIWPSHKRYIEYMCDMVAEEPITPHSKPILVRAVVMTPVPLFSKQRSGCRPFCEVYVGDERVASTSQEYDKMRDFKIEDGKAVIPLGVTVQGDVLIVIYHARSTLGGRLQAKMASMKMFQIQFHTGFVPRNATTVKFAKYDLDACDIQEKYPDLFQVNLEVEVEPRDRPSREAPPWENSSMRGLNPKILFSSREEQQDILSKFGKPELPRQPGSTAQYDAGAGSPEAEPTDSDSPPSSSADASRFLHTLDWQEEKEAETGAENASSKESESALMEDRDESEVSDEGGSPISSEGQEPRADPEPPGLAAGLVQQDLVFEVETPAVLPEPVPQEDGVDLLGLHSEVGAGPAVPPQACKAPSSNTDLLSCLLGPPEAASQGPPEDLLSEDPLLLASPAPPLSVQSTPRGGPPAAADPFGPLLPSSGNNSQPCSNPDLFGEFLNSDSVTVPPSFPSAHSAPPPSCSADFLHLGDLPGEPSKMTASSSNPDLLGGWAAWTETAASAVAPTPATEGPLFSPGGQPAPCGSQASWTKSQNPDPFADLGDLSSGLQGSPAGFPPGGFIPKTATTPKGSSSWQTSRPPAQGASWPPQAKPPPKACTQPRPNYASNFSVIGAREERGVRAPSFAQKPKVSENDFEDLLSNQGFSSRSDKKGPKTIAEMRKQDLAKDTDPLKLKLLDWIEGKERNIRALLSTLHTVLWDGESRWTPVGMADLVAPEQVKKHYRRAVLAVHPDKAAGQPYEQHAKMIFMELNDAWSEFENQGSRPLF

[3] = target: Mast/stem cell growth factor receptor Kit (Homo sapiens) (UniProt P10721); test: Inhibition of KIT (unknown origin) at 1 uM relative to control; values are per cent of control
[4] = target: T2, Dual specificity mitogen-activated protein kinase kinase 5 (Homo sapiens) (UniProt Q13163); test: Inhibition of MEK5 (unknown origin) at 1 uM relative to control; values are per cent of control
T2 sequence (whole entry): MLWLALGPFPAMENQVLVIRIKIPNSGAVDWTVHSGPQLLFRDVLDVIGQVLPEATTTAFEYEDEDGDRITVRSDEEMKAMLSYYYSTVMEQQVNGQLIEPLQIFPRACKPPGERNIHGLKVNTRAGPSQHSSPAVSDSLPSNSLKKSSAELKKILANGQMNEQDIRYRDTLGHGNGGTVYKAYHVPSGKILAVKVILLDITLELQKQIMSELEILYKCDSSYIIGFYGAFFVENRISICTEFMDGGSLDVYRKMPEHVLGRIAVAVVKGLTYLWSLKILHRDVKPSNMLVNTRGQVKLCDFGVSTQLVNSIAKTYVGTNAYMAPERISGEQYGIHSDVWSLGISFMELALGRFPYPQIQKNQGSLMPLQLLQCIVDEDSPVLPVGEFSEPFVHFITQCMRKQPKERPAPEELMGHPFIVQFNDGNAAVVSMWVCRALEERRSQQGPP

[5] = target: MAP kinase-activated protein kinase 2 (Homo sapiens) (UniProt P49137); test: Inhibition of MAPKAPK2 (unknown origin) at 1 uM relative to control; values are per cent of control
[6] = target: Cyclin-dependent kinase 4/cyclin D1 (Homo sapiens) (UniProt P11802+P24385); test: Inhibition of CDK4-cyclinD1 (unknown origin) at 1 uM relative to control; values are per cent of control

MAP kinase-activated protein kinase 2 (Homo sapiens), sequence (P49137 whole entry, looked up): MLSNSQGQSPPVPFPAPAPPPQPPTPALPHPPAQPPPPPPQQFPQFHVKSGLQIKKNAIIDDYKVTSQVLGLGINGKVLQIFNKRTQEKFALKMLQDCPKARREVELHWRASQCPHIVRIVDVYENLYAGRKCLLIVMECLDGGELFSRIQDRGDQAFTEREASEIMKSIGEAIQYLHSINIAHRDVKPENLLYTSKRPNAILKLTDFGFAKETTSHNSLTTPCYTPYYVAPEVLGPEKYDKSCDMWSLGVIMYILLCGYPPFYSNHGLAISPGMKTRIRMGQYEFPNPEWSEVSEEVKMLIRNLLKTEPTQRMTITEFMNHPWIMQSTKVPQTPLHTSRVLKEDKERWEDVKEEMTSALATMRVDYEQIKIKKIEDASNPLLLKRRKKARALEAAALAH
Mast/stem cell growth factor receptor Kit (Homo sapiens), sequence (P10721 whole entry): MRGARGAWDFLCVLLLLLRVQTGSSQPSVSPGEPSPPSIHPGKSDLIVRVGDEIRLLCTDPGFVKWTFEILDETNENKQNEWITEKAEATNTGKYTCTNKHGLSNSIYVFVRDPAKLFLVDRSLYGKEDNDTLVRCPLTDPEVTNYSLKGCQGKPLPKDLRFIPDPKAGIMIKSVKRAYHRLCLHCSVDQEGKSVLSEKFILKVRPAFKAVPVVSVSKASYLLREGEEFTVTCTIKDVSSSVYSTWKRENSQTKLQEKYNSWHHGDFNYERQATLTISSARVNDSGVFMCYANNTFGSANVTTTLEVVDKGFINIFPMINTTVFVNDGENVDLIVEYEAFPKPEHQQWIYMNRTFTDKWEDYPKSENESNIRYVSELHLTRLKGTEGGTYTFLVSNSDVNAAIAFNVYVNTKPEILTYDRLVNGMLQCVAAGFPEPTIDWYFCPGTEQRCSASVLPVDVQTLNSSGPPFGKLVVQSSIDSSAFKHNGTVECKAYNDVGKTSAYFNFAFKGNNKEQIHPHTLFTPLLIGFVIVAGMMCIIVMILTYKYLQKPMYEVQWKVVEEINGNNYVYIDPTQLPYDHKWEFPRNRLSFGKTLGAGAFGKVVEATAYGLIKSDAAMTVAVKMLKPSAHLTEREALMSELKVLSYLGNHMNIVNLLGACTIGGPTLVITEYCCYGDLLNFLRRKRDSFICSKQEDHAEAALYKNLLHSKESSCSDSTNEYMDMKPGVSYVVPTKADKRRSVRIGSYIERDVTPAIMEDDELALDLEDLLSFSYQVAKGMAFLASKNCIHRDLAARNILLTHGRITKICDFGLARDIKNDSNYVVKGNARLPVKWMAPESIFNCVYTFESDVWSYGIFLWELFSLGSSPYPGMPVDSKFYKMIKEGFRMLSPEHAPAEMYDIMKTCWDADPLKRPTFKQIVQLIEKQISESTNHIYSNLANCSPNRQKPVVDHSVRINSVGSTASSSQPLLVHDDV

Structure (SMILES) | pIC50 [1] | residual activity [2] | residual activity [3] | residual activity [4] | residual activity [5] | residual activity [6]
CCOC(=O)c1sc(-c2ccncc2)nc1O | < 3.90 | 97% | 100% | 83% | 94% | 100%
NC(=O)c1sc(-c2ccnc(N)n2)nc1-c1ccc(Cl)cc1Cl | 5.74 | 90% | 75% | 79% | 96% | 100%
COc1ccc(-c2nc(-c3ccnc(N)n3)sc2C(N)=O)c(Cl)c1 | 4.97 | 88% | 78% | 80% | 100% | 98%
